Measurements as given in ChEMBL document CHEMBL2074367, “Characterization of a novel bisacridone and comparison with PSC 833 as a potent and poorly reversible modulator of P-glycoprotein” (Mol Pharmacol, 1997).

Molecular target: ATP-dependent translocase ABCB1 (Homo sapiens, UniProt P08183)
Experiment: TP_TRANSPORTER: increase in Vinblastine intracellular accumulation (Vinblastine: 0.0375 uM, PBA: 1 uM) in KB8-5 cells
Assay type: functional, cell-based
Details: kb8-5, 1 µM

ATP-dependent translocase ABCB1, sequence (P08183 whole entry): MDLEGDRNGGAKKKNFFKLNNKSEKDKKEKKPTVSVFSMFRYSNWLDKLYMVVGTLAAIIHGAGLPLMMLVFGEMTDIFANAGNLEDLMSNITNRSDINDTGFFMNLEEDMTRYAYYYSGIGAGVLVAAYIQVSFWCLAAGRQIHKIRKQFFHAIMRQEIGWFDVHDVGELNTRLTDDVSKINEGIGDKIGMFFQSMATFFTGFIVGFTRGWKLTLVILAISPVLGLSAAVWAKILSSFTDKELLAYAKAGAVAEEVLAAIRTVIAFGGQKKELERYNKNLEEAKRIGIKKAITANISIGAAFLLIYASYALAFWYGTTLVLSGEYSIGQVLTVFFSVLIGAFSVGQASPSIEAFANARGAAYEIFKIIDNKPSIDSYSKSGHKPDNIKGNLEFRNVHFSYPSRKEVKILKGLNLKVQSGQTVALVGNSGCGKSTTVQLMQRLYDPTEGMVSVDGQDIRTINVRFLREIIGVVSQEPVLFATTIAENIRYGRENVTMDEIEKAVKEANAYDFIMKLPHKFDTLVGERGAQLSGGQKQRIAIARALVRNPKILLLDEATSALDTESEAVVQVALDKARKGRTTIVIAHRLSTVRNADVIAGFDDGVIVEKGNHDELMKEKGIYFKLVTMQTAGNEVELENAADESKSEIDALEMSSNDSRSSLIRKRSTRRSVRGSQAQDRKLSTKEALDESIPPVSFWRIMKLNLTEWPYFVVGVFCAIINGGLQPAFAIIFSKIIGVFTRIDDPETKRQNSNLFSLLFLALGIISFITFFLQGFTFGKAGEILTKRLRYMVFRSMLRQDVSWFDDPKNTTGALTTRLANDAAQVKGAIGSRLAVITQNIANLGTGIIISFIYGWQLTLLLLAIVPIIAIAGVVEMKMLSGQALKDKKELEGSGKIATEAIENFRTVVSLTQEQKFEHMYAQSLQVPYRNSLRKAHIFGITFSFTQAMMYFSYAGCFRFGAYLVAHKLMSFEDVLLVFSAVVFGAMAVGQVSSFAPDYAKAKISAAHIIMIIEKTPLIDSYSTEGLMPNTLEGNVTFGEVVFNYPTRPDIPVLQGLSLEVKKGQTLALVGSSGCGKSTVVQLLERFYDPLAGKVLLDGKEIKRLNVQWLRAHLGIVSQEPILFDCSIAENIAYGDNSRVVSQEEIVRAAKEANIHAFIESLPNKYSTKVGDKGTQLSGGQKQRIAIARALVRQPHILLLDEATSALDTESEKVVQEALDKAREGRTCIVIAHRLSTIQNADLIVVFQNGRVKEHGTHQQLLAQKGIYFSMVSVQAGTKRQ

Inhibition: inhibitor [800-900 % inhibition]
Compound: O=c1c2ccccc2n(CCCn2c3ccccc3c(=O)c3ccccc32)c2ccccc12
